Patent publication US20230338453A1, “PROCESS FOR PRODUCING A HYDROLYSATE OF SCUTELLARIA ROOT, WHICH IS ENRICHED AND STANDARDIZED WITH FLAVONOIDS OF INTEREST, THE HYDROLYSATE OBTAINED BY SUCH A PROCESS, AND COSMETIC AND DERMOCOSMETIC APPLICATIONS OF SUCH A HYDROLYSATE” (EXSYMOL, priority 2020, published 2023)

Tested on: pro-inflammatory cytokine IL-6
Experiment: Test 1: IL-6 secretion by stress-induced senescent fibroblasts (ELISA)
Type: cell-based, human
Protocol: Experimentally, the test was carried out on primary human fibroblasts (abbreviation “NHDF” for “Normal Human Dermal Fibroblasts”) isolated from breast plastic surgery from a patient. These NHDFs were cultured in a complete “DMEM” culture medium (with 4.5 g/l of glucose and 10% of fetal calf serum (FCS)), then maintained in an atmosphere at 37° C. and 10% of CO2. On D-2, the fibroblasts were seeded in 6-well plates at a rate of 1.10^4 cells/cm^2. On D0, the fibroblasts were subjected to stress inducing premature senescence ([…] hydrogen peroxide, H2O2, for 2 hours), then incubated at 37° C. and 10% CO2 for 72 hours in order to leave senescence settle. On D+3, these senescent fibroblasts induced by such stress (abbreviation “SIPS-fibro” for “Stress-Induced Premature Senescent-fibroblasts”) were incubated for 24 hours in the presence of different weight ratios of wogonin to baicalein (abbreviation “W/B”) of synthetic origin. On D+4, the culture supernatants were harvested in order to perform an ELISA assay for the pro-inflammatory cytokine IL-6 (“R&DSystem kit, ref. D6050”). The results obtained were then normalized with respect to the quantity of cells per condition and subjected to statistical analysis in triplicate. The results are collated in Table 1 below, in particular expressed as % inhibition of IL-6 secretion relative to the senescent control.

SMILES: COc1c(O)cc(O)c2c(=O)cc(-c3ccccc3)oc12 [wogonine, 5,7-dihydroxy-8-methoxyflavone]
- % inhibition of IL-6 secretion (relative to the senescent control, senescent NHDF, 24 hours): −10%
- Amount of IL-6 secreted (senescent NHDF (H2O2 stress), incubated 24 hours with compound, ELISA): 9.1 ng/10^6 cells
